In PubChem BioAssay (NCI):
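Each compound was tested at five concentrations against cells in 96-well plates for 48 hours. TGI is the concentration that stops growth completely.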

Columns and labels:
Assay in all cases: NCI anticancer screen, dose series, 48 h
K-562 leukemia = tested on: K-562 leukemia
NCI-H226 lung = tested on: NCI-H226 lung
OVCAR-4 ovarian = tested on: OVCAR-4 ovarian
OVCAR-3 ovarian = tested on: OVCAR-3 ovarian
SK-MEL-2 melanoma = tested on: SK-MEL-2 melanoma
TK-10 renal = tested on: TK-10 renal
SK-MEL-5 melanoma = tested on: SK-MEL-5 melanoma
MALME-3M melanoma = tested on: MALME-3M melanoma
SF-268 CNS = tested on: SF-268 CNS
M14 melanoma = tested on: M14 melanoma
SF-539 CNS = tested on: SF-539 CNS
HCC-2998 colon = tested on: HCC-2998 colon
KM12 colon = tested on: KM12 colon
NCI-H522 lung = tested on: NCI-H522 lung
OVCAR-8 ovarian = tested on: OVCAR-8 ovarian
OVCAR-5 ovarian = tested on: OVCAR-5 ovarian
DMS 114 small cell lung = tested on: DMS 114 small cell lung
A498 renal = tested on: A498 renal

Measured: TGI

C[n+]1c2ccccc2c(NCC(=O)O)c2ccccc21
> 100 µM: all assays above

O=C1N(Cl)C(=O)C(c2ccc(Cl)cc2)(c2ccc(Cl)cc2)N1Cl
not listed: OVCAR-5 ovarian
> 100 µM: all other assays above
